The text below walks through data of patent publication US4604238A, “Analogs of calcitonin” (Armour Pharmaceutical Company, priority 1984, dated 1986).

Bridge positions count the residues as written; N and C are the ends. Peptide text beside a SMILES is read from it.

Assay [1] concerns serum calcium concentration.
Method: Biological Assay of Calcitonin Analogs In Vivo
Rats were divided into four groups of seven animals, and each group was assigned at random to a dose of standard or test solution. Low and high doses were chosen from the linear portion of the dose-response curve. For the salmon calcitonin standard, the values were 0.7 and 2.1 ng. peptide/100 g. body weight (BW). This dose approximates 3 and 9 MU/100 g. BW. Peptides were given by subcutaneous injection (0.2 ml/100 g. BW) and blood was withdrawn 1 hour later for serum calcium determination. Sera are processed and analyzed within two hours of collection. Results were analyzed within two hours of collection.
The conditions of assay [2]: literature values, Experientia 32(9), 1104-1106 (1976); cited from earlier work.

As to `CC(C)C[C@H](NC(=O)[C@H](CCCCN)NC(=O)CNC(=O)[C@H](CC(C)C)NC(=O)[C@@H](NC(=O)[C@@H]1CSSC[C@H](N)C(=O)N[C@@H](CO)C(=O)N[C@@H](CC(N)=O)C(=O)N[C@@H](CC(C)C)C(=O)N[C@@H](CO)C(=O)N[C@@H]([C@@H](C)O)C(=O)N1)C(C)C)C(=O)N[C@@H](CO)C(=O)N[C@@H](CCC(N)=O)C(=O)N[C@@H](CCC(=O)O)C(=O)N[C@@H](CC(C)C)C(=O)N[C@@H](Cc1c[nH]cn1)C(=O)N[C@@H](CCCCN)C(=O)N[C@@H](CC(C)C)C(=O)N[C@@H](CCC(N)=O)C(=O)N[C@H](C(=O)N[C@@H](Cc1ccc(O)cc1)C(=O)N1CCC[C@H]1C(=O)N[C@@H](CCCNC(=N)N)C(=O)N[C@H](C(=O)N[C@@H](CC(N)=O)C(=O)N[C@H](C(=O)NCC(=O)N[C@@H](CO)C(=O)NCC(=O)N[C@H](C(=O)N1CCC[C@H]1C(N)=O)[C@@H](C)O)[C@@H](C)O)[C@@H](C)O)[C@@H](C)O` [salmon calcitonin, Salmon calcitonin], in assay [1] (independently determined content of the standard), the “potency of the standard salmon calcitonin used” value is recorded as “greater than 4,000 IU/mg”.
Consider “eel calcitonin [synthetic eel calcitonin]”, for which the hypocalcemic potency result in assay [2] is given as “around 4300 IU/mg”.
For “(1,7α-L-aminosuberic acid)eel calcitonin”, the hypocalcemic potency entry in assay [2] is listed as “about 3400 IU/mg”.
As for `CC(C)C[C@H](NC(=O)CNC(=O)[C@@H]1CSSC[C@H](N)C(=O)NCC(=O)N[C@@H](CO)C(=O)N[C@@H](CC(C)C)C(=O)N[C@@H](CO)C(=O)N[C@@H]([C@@H](C)O)C(=O)N1)C(=O)NCC(=O)N[C@@H](CCCCN)C(=O)N[C@@H](CC(C)C)C(=O)N[C@@H](CO)C(=O)N[C@@H](CCC(N)=O)C(=O)N[C@@H](CCC(=O)O)C(=O)N[C@@H](CC(C)C)C(=O)N[C@@H](Cc1c[nH]cn1)C(=O)N[C@@H](CCCCN)C(=O)N[C@@H](CC(C)C)C(=O)N[C@@H](CCC(N)=O)C(=O)N[C@H](C(=O)N1CCC[C@H]1C(=O)N[C@@H](CCCNC(=N)N)C(=O)N[C@H](C(=O)N[C@@H](CC(N)=O)C(=O)N[C@H](C(=O)NCC(=O)N[C@@H](CO)C(=O)NCC(=O)N[C@H](C(=O)N1CCC[C@H]1C(N)=O)[C@@H](C)O)[C@@H](C)O)[C@@H](C)O)[C@@H](C)O` [[Gly^2,Ser^3,Gly^8,des-Tyr^22]SCT, [Gly^2,Ser^3,Gly^8,des-Tyr^22]salmon calcitonin] (H-CGSLSTCGLGKLSQELHKLQTPRTNTGSGTP-NH2; disulfide 1-7), the biological potency in assay [1] (rat, in vivo, sc) was found to be 8600 IU/mg.
